Laboratory results from patent US10005750B2, “Developing potent urate transporter inhibitors: compounds designed for their uricosuric action” (priority 2010, dated 2018).

Tests used:
[1] = oral; 7 (100 mg/kg) versus 4 (300 mg/day) or 5 (1000 mg/day); cited from earlier work
hURAT1 [2] = biological target: T1, hURAT1 (Homo sapiens, UniProt Q96S37); design: expressed in transfected cells; host or cells: Xenopus laevis oocytes injected with capped cRNA; settings: previous results of the applicants' laboratories; cited from earlier work
T1 sequence (Q96S37 1-553): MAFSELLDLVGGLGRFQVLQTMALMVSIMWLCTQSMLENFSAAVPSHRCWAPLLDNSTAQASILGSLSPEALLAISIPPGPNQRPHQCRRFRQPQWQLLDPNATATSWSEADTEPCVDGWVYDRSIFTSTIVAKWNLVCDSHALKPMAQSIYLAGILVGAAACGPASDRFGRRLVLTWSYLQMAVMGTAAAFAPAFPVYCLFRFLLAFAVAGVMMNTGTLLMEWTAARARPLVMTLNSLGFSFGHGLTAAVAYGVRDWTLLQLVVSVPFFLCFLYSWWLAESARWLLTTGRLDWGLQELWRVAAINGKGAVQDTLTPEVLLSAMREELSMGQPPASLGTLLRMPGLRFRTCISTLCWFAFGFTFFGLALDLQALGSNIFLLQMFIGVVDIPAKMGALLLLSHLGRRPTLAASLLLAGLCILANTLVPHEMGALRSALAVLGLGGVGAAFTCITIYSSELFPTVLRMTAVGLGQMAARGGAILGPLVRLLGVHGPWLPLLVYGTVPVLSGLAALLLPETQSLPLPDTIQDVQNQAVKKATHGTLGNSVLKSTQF

hURAT1 [3] = biological target: T1, hURAT1; assay: MDCK-hURAT1 data (Endou and Olkawa, 2009); format: cell-based; design: expressed in transfected cells; settings: 8 versus 7, MDCK-hURAT1 data
hURAT1 [4] = biological target: T1, hURAT1; assay: [14C]urate uptake inhibition in Xenopus oocytes expressing hURAT1; format: cell-based; design: expressed in transfected cells; host or cells: Xenopus laevis oocytes injected with capped cRNA; settings: 60 min; for IC50: 14C-uric acid uptake; for 14C-urate transport inhibition: test compound at 50 μM
Procedure: cRNA synthesis and oocyte injection. The hURATv1 (pCMV6-XL5) plasmids were linearized with XbaI and hURAT2 (pCMV-SPORT6) plasmids were linearized with XhoI. The cRNAs were synthesized in vitro with T7 RNA polymerase (for hURATv1) or SP6 RNA polymerase (for hURAT2) using mMessage mMachine® High yield capped RNA transcription kit (Ambion, Austin, Tex., USA). The polyadenylation of cRNA at 3′-end was performed using poly(A) tailing kit (Ambion, Austin, Tex., USA). Female Xenopus frogs (African clawed frogs; 95-120 g) were purchased from Sato Zoushoku (Chiba, Japan) and nurtured in tap water (19±3° C.). […] The oocytes were washed in Ca^2+-free solution and transferred to ND96 solution (96.0 mM NaCl, 2.0 mM KCl, 1.0 mM CaCl2, 1.0 mM MgCl2.6H2O and 5.0 mM HEPES, pH 7.5). Defolliculated Xenopus oocytes (stage 1V and V) were injected with 25 ng of capped cRNA and incubated at 18° C. for 2-3 days in ND96 solution containing gentamicin (50 μg/ml) and 2.5 mM sodium pyruvate.
Inhibition study. After incubation of cRNA-injected oocytes (2-3 days), uptake experiments were performed at room temperature in ND96 solution. […] The uptake was terminated by washing the oocytes with ice-cold uptake solution (5 times @ 1.0 ml each) after 60 min of incubation. The oocytes were solubilized with 5% (w/v) SDS and the radioactivity content determined using liquid scintillation counter (Aloka 3100; Aloka Co., Ltd. Tokyo, Japan). The urate uptake by non-injected (control) oocytes was subtracted from oocytes expressing hURAT1, hURATv1 or hURAT2. The data are presented and reported as the % inhibition. The IC50 data were conducted using different compound concentrations.
We conducted a general screen where ^14C-uric acid ([…]) and test compound (50 μM) were placed in the extracellular fluid. Radioactivity inside the oocyte was analyzed after 60 min. […] The IC50 values were generated using a sigmoidal dose-response (variable slope) relationship.

[5] = system: hURAT1, hURAT2, and hURATv1; assay: combined % inhibition of urate transport in oocytes expressing hURAT1, hURAT2 or hURATv1; format: cell-based, human; settings: sum over the three transporters
Procedure: cRNA synthesis and oocyte injection. The hURATv1 (pCMV6-XL5) plasmids were linearized with XbaI and hURAT2 (pCMV-SPORT6) plasmids were linearized with XhoI. The cRNAs were synthesized in vitro with T7 RNA polymerase (for hURATv1) or SP6 RNA polymerase (for hURAT2) using mMessage mMachine® High yield capped RNA transcription kit (Ambion, Austin, Tex., USA). The polyadenylation of cRNA at 3′-end was performed using poly(A) tailing kit (Ambion, Austin, Tex., USA). Female Xenopus frogs (African clawed frogs; 95-120 g) were purchased from Sato Zoushoku (Chiba, Japan) and nurtured in tap water (19±3° C.). Oocytes (1.23±0.10 mg/oocyte) isolated from Xenopus laevis were defolliculated with 1.0 mg/ml collagenase in Ca^2+-free solution (96.0 mM NaCl, 2.0 mM KCl, 1.0 mM MgCl2.6H2O and 5.0 mM HEPES, pH 7.5) at 25+2° C. for 2.0 h. The oocytes were washed in Ca^2+-free solution and transferred to ND96 solution (96.0 mM NaCl, 2.0 mM KCl, 1.0 mM CaCl2, 1.0 mM MgCl2.6H2O and 5.0 mM HEPES, pH 7.5). Defolliculated Xenopus oocytes (stage 1V and V) were injected with 25 ng of capped cRNA and incubated at 18° C. for 2-3 days in ND96 solution containing gentamicin (50 μg/ml) and 2.5 mM sodium pyruvate.
Inhibition study. […] The oocytes were solubilized with 5% (w/v) SDS and the radioactivity content determined using liquid scintillation counter (Aloka 3100; Aloka Co., Ltd. Tokyo, Japan). […]

For `CCc1oc2ccccc2c1C(=O)c1cc(Br)c(O)c(Br)c1` [Compound 7, (3,5-Dibromo-4-hydroxyphenyl)(2-ethylbenzofuran-3-yl)methanone], the “physiological effect (lowers urate level)” value [1] is listed as “greater physiological effect” and the hURAT1 inhibitor properties (hURAT1 [2]) is listed as “potent”.
In the case of `CCc1oc2cc(O)ccc2c1C(=O)c1cc(Br)c(O)c(Br)c1` [Compound 8, (3,5-dibromo-4-hydroxyphenyl)(2-ethyl-6-hydroxy-benzofuran-3-yl)methanone], the fold difference (hURAT1 [3]) is given as 5.7 fold, the IC50 (hURAT1 [4]) is given as 0.138 µM and the hURAT1 inhibitor properties (hURAT1 [2]) is given as “potent”.
For `CCc1oc2ccccc2c1C(=O)c1ccc(OC)cc1` [Compound 12, (2-Ethylbenzofuran-3-yl)(4-methoxyphenyl)methanone], the 14C-urate transport inhibition (hURAT1 [4]) was “weak-to-no”.
In the case of `CCc1oc2ccccc2c1C(=O)c1ccc(O)cc1` [Compound 13, (2-Ethylbenzofuran-3-yl)(4-hydroxyphenyl)methanone, reference compound], the IC50 (hURAT1 [4]) is reported as 2.8 µM.
For `CCc1oc2ccc(OC)cc2c1C(=O)c1ccc(OC)cc1` [Compound 14, (2-Ethyl-5-methoxybenzofuran-3-yl)(4-methoxyphenyl)methanone], the 14C-urate transport inhibition (hURAT1 [4]) was “weak inhibition”.
For `CCc1oc2c(OC)cccc2c1C(=O)c1ccc(OC)cc1` [Compound 19, (2-Ethyl-7-methoxybenzofuran-3-yl)(4-methoxyphenyl)methanone], the 14C-urate transport inhibition (hURAT1 [4]) was “weak inhibition”.
For `CCc1oc2cc(OC)ccc2c1C(=O)c1ccc(O)cc1` [Compound 30, (2-Ethyl-6-methoxybenzofuran-3-yl)(4-hydroxyphenyl)methanone], the IC50 (hURAT1 [4]) was 3.9 µM.
In the case of `CCc1oc2cc(O)ccc2c1C(=O)c1ccc(OC)cc1` [Compound 31, (2-Ethyl-6-hydroxybenzofuran-3-yl)(4-methoxyphenyl)methanone], the IC50 (hURAT1 [4]) is reported as greater than 50 µM.
`CCc1oc2cc(O)ccc2c1C(=O)c1ccc(O)cc1` [Compound 32, (2-ethyl-6-hydroxybenzofuran-3-yl)(4-hydroxyphenyl)methanone] showed an IC50 (hURAT1 [4]) of 1.1 µM.
Work on `CCc1cc2cc(OC)cc(C(=O)c3cc(Br)c(O)c(Br)c3)c2o1` [Compound 43] yielded an IC50 (hURAT1 [4]) of 1.44 µM.
With `CCc1cc2cc(O)cc(C(=O)c3cc(Br)c(O)c(Br)c3)c2o1` [Compound 44, (3,5-Dibromo-4-hydroxyphenyl)(2-ethyl-5-hydroxybenzofuran-7-yl)methanone] the IC50 (hURAT1 [4]) was 0.287 µM.
For `CCc1oc2ccccc2c1C(=O)c1cc(Br)c(OC)c(Br)c1` [Compound 85, (3,5-Dibromo-4-methoxyphenyl)(2-ethylbenzofuran-3-yl)methanone], the “combined % inhibition for hURAT1, hURAT2, and hURATv1” value [5] was less than 160%.
